Data set [1] deals with A. baumannii strains #1791, S5 and ATCC17978. In words: In vitro bactericidal activities of peptides (Example 10). It is filed as cell-based.
For data set [2], the system named is A. baumannii strains #1791 and ATCC17978. The settings on record: Mueller-Hinton broth (pH 7.9), 37° C., 24 hour.
The test system is the same in data set [3]. In words: microbe, parasite or virus in culture. As to conditions: Acinetobacter baumannii, ATCC17978, 24 h, 37° C.
Data set [4] deals with B cell line. Briefly: in vitro. It is filed as cell-based.
Data set [5] in a line: in vitro. It is filed as cell-based. As to conditions: B cell line.
In data set [6] the test system is Human B-cells. In words: B cell survival, CellTiter 96 Non-Radioactive Cell Proliferation Assay. The settings on record: highest concentration tested (80 μM); 1 hr at 37° C.
Data set [7] deals with red blood cells (RBC). In words: Hemolysis, release of hemoglobin (OD405). The settings on record: 80-0.3125 μM; 1 hour at 37° C.; Triton X-100 positive control.
Data set [8] concerns A. baumannii strain 1791 biofilm. Briefly: Mouse catheter model. It is filed as in vivo, BALB/C mice. As to conditions: 250 μl of F307 (1 mg) injected into catheter under the dermis, repeated after 4 hours. The protocol: Mouse Catheter Model: Several 3 inch section of catheter tubing were seeded (1:1000) with A. baumannii strain 1791. A. baumannii biofilms were formed as described above. The back of twenty BALB/C mice were shaved, their backs were sterilized, and then an incision was made to place a 1 inch section of the catheter with a biofilm already formed under the dermis of the back. The incisions were then stapled shut. After 24 hours, 250 μl of F307 (1 mg) (n=10) or 250 μl control vehicle (n=10) was injected directly into the catheter that was under the dermis of the mouse. The treatment was repeated after 4 hours. After 3 hours the catheters were removed from the mice, and assayed as described in Experiment 4.

Data set [9] has as its system A. baumannii clinical isolates. Briefly: Crude lysate clearing zones on A. baumannii soft agar plates. As to conditions: thirteen A. baumannii clinical isolates.
For data set [10], the system named is A. baumannii 1791 biofilm. In words: In vitro treatment of catheter adherent A. baumannii 1791 biofilm with F307.
For data set [11], the system named is A. baumannii. In words: Survival of mice after lethal injection of A. baumannii. It is filed as in vivo, C57BL/6 mice. The settings on record: 1 mg of F307 IP two hours after 10^8 CFU IP; 14 days after infection. The method, then:
Twenty-two C57BL/6 mice were given 10^8 CFU of A. baumannii strain intraperitoneally (IP). Two hours later, two mice were euthanized and organs examine as described below, ten mice injected IP with 1 mg of F307 and ten mice were injected IP with control vehicle.

Setting [12] is: pH 7.9, strain #1791, Mueller-Hinton broth (pH 7.9).
Where [13] appears, read: pH 7.9, strain ATCC17978, Mueller-Hinton broth (pH 7.9).

Where “and” joins values, the source holds several entries; their conditions need not be identical. Equal values may be shown once. Read-outs that look alike come from different tables or passages of the source. Where no end group is shown, it is not given here.

Regarding “P307CS-8: SEQ ID NO: 51: NAKDYKGAAAEFPKWNKAGGRVLAGLVKRRKCSQRQSES (P307CS-8)”, in [1] (scrambled last eight amino acids), the “activity of P307CS-8 compared with P307SQ-8C” value is reported as “comparable”.
In the case of Polymyxin B [reference compound], the MIC is 0.25 μg/mL and 0.19 μM in [2] (strain #1791); 0.25 μg/mL and 0.19 μM in [2] (strain ATCC17978).
As to “P307AE-8: SEQ ID NO: 49: NAKDYKGAAAEFPKWNKAGGRVLAGLVKRRKAEMELFLK (P307AE-8)”, the “decrease in viable bacteria” value in data set [1] (50 μg/mL, 2 hours, room temperature) is given as around 3.8 log-unit.
Turning to `C[C@H]1COc2c(N3CCN(C)CC3)c(F)cc3c(=O)c(C(=O)O)cn1c23` [Levofloxacin], the MIC in data set [3] (setting [12]) is 6 µg/mL and 16.6 µM; in [3] (setting [13]), ≤ 0.1 µg/mL and 0.3 µM.
Consider NAKDYKGAAAEFPKWNKAGGRVLAGLVKRRK [P307], for which the “effect on cell number of a B cell line” value in data set [4] was “only a slight effect on cell number”. Also, in data set [5], the viability (usually a read-out of living cells in per cent, often relative to untreated cells) at 5 min, 2 μg amounted to 95.2%; the viability at 5 min, 20 μg stood at 97.2%; the viability at 5 min, 200 μg amounted to 94.6%; the viability at 0.5 h, 2 μg is 76.9%. In data set [5], this molecule registered a viability at 0.5 h, 20 μg of 88.6%; a viability at 1 h, 2 μg of 89.3%; a viability at 1 h, 20 μg of 89.7%; a viability at 1 h, 200 μg of 71.4%. Moreover, in data set [5], the viability at 2 h, 2 μg came out at 92.5%; the viability at 2 h, 20 μg is 90.3%; the viability at 2 h, 200 μg is 71.9%; the viability at 3 h, 2 μg is 93.8%. Besides, in [5], the viability at 3 h, 20 μg was found to be 91%; the viability at 3 h, 200 μg is 58.6%; the viability at 24 h, 2 μg was found to be 96.3%; the viability at 24 h, 20 μg is 94.2%. This molecule also came in with a viability at 24 h, 200 μg in [5] of 76.3%.
On to “NAKDYKGAAAEFPKWNKAGGRVLAGLVKRRKSQSRESQC [P307SQ-8C]”, for which the “viability of B cells” value in [6] is listed as “remains the same as the buffer control”. Moreover, the “integrity of RBCs (hemolysis)” value in data set [7] is “not affected”.
In the case of SQSRESQC (Ex) [reference compound], in data set [1] (strains #1791 and S5, same molar concentration as 50 μg/mL P307), the “bactericidal activity of SQSRESQC alone or combined with P307” value is “no activity”.
In the case of `CC(C)(O/N=C(\C(=O)N[C@@H]1C(=O)N2C(C(=O)[O-])=C(C[n+]3ccccc3)CS[C@H]12)c1csc(N)n1)C(=O)O` [Ceftazidime], the MIC in data set [3] (setting [12]) was 250 µg/mL and 457 µM; in data set [3] (setting [13]), 12 µg/mL and 21.9 µM.

B1: F307: phage lysin polypeptide, SEQ ID NO: 1, 16 kDa (protein, listed as Acinetobacter baumannii)
chain: VKTSNPGVDLIKGFEGLRLKAYDDGVGVWTIGFGTIKYPNGVRVKKGDTCTESQAEEYLRNDLVVFESAINRLVKVPLNQNQFDALASFTYNLGEGNLSISTLLKKLNAKDYKGAAAEFPKWNKAGGRVLAGLVKRRKAEMELFLK
In the case of B1, the “reduction of bacterial counts compared with control” value in data set [8] is “approximately 2 logs”. For the same molecule, in data set [9], the “percent of Acinetobacter strains lysed” value is listed as “about 90%”. Further, in [10] (3-day biofilm on catheter, after 30 minutes of treatment), the “drop in the number of colony forming units” value is on record as around 4 log. In addition, the CFU in data set [10] (15 minutes F307 treatment) was 9.0 × 10^4 CFU; in data set [10] (30 minutes F307 treatment) it was 6.0 × 10^3 CFU. Further, the survival in data set [11] is recorded as 50%.

The record behind these values is patent US11180744B2, “Acinetobacter lysins” (priority 2014, dated 2021).
